Reference: patent US20120177712A1, “ANTIMICROBIAL PARTICLE AND A PROCESS FOR PREPARING THE SAME” (priority 2009, published 2012)

System: S. epidermidis
Test: Antimicrobial activity on fabric (washed cotton swatches)
Format: cell-based
Conditions: in model detergent (0.6 g/L Na-LAS, 1.2 g/L Soda, 0.9 g/L NaCl), CPC 0.02 g/L or equivalent amount of particle, cotton swatches soaked, rinsed three times
Protocol: Cotton swatches having dimension 4×4 cm were used in this example. The swatches were soaked in respective compositions as given below for 30 minutes and then washed for 30 minutes in a shaker bath. After that the swatches were rinsed three times with deionized water in a shaker bath. The liquid to cloth ration were maintained at 20 during the washing and rinsing step.

Q: How did the Log reduction turn out when CCCCCCCCCCCCCCCC[n+]1ccccc1 [CPC, Cetylpyridinium chloride] was run?
A: The Log reduction was 1.99.
